We go through 17 molecules from US6689777B2 (Kenneth S. Warren Institute, priority 2001, dated 2004).

In one assay the test system is P. falciparum. The experiment in a line: P. falciparum growth in culture ([3H]-hypoxanthine incorporation). The class given is cell-based. To be noted: read-out: IC50 vs. P. falc. The method, then:
To determine the effectiveness of the compounds of the present invention against the erythrocytic stage of the malarial parasite, P. falciparum was grown in human erythrocyte suspensions and maintained at 37° C. in candle jars according to the method of Trager and Jensen (15,16). Parasites were stage-synchronized by incubating mainly ring-stage infected erythrocytes in 5% sorbitol for 10 minutes at room temperature (17). Cultures undergo one growth cycle (2 days) before use. Strains used include the chloroquine sensitive strains D10 and HB3, and the chloroquine resistant isolates Dd2 and FCR.
Parasite growth was determined by measuring incorporation of [^3H]-hypoxanthine into the nucleic acids of the parasite (18). Effects of the compounds of the present invention on parasite growth was determined by measuring the reduction in incorporation of radiolabel as compared to controls. Briefly, assays are performed in 96-well microtiter plates. After 24 h of candle jar incubation at 37° C., [^3H]-hypoxanthine is added to each well. After 18 h the plates are harvested onto glass fiber filter 96 well plates using a cell harvester, dried, and the amount of radioactivity is determined. Drug IC50 values (molar concentration which decreases [^3H]-hypoxanthine incorporation by 50% as compared to drug-free controls) are calculated by extrapolation of the log dose-response curves using curve fitting software (Origin, Microcal Software, Northampton, Mass.).
Parasites were grown in A^+ human erythrocyte suspensions using RPMI-1640 (GIBCO, Gaithersburg, Md.) medium supplemented by 25 mM HEPES (pH 7.35), 0.2% NaHCO3 (23 mM), 0.2% (D)-Glucose and 10% human A^+ plasma and maintained at 37° C. in candle jars according to the method of Trager and Jensen (20,21) Parasites are stage synchronized by incubating mainly ring-stage infected erythrocytes in 5% sorbitol for 10 minutes at room temperature (22). Cultures undergo one growth cycle (2 days) before use. Strains used include the chloroquine sensitive strains D10 and HB3, and the chloroquine resistant isolates Dd2 and FCR.
Parasite growth was determined by measuring incorporation of [^3H]-hypoxanthine into the nucleic acids of the parasite as previously described (23). Effects of the compounds of the present invention on parasite growth was determined by measuring the reduction in incorporation of radiolabel as compared to controls. Briefly, assays were performed in 96-well microtiter plates, each well containing 200 μl of synchronized ring-stage infected erythrocytes in complete media and 50 μl of drug dilution or solvent. The final hematocrit was 1.5% and percent parasitemias range from 2-8%. After 24 h of candle jar incubation at 37° C., 2.5 μCi of [^3H]-hypoxanthine (17 Ci/mmol, Amersham, Arlington Heights, Ill.) in RPMI-1640 media supplemented with 25 mM HEPES (pH 7.35), 0.2% NaHCO3 (23 mM), 0.2% (D)-Glucose is added to each well. After 18 h the plates were harvested onto glass fiber filter 96 well plates using a cell harvester, dried, and 25 μl scintillation acid added per well. The, amount of radioactivity was determined. Drug IC50 values (molar concentration which decreases [^3H]-hypoxanthine incorporation by 50% as compared to drug-free controls) are calculated by extrapolation of the log dose-response curves using curve fitting software (Origin, Microcal Software, Northampton, Mass.). The effects on parasite grown by aromatic guanyllhydrazones, bisguanylhydrazones, naphthothiazolium salts, and other compounds of the instant invention, together with data on hemozoin depolymerization from Example 5, are shown in tables 1 through 4, respectively.

The test system of the next assay is synthetic hemozoin. As to the kind of experiment: Depolymerization of synthetic hemozoin in vitro. The assay is classed as biochemical. To be noted: 50 mM test compound, acetate buffer pH 5.0, 37° C., 16 hours. The method, then: This activity is evaluated by incubating a suspension of monomer-free hemozoin at 37° C. with compounds of the present invention for 16 hours. After incubation, hemozoin is separated from any solubilized heme and soluble heme oligomers, the oligomers depolymerized, and the heme present in the supernatants determined.
The synthesis of synthetic hemozoin is carried out as previously described (26). In brief, 60 μmoles of hematin was dissolved in 8 ml of 0.1N NaOH. Following dissolution 49 mmoles of glacial acetic acid was added and the suspension heated at 70° C. overnight. The precipitate was then washed extensively with LPS-free water. In order to remove unreacted heme the precipitate was extracted with 0.1M sodium bicarbonate (pH 9.1) for three hours. The remaining insoluble material was recovered by centrifugation, resuspended in EtOH and transferred to sterile Eppendorf tubes. The material was washed several times in EtOH and finally resuspended in LPS-free double-distilled H2O. The hemozoin preparation was then tested for endotoxin by using the Limulus Amebocyte Lysate test following manufacturer's instructions. Although the preparation of LPS-free hemozoin from native or synthetic sources is not critical for in vitro depolymerization studies, it is critical for studies involving monocytes and animals (see Examples below). Small amounts of LPS can evoke a considerable cytokine response and interfere with interpretation of results. The amount of heme in the final product was determined from a small aliquot using the pyridine-hemochrome method as previously described (26). The preparations are stored at 4° C. until used.
A suspension of monomer-free hemozoin (equivalent to 2 mM free heme) as prepared above was incubated at 37° C. with […] test compound in total volume of 500 μl in acetate buffer (pH: 5.0) in siliconized Eppendorf tubes (Brinkmann Instruments, Westbury, N.Y.) for 16 hours. A control sample containing distilled H2O instead of hemozoin was included. The samples were centrifuged at 14,000 rpm (Eppendorf centrifuge model 5415C, Brinkmann Instruments, Westbury, N.Y.) for 20 min; then 225 μl supernatant was diluted in 175 μl acetate buffer (pH 5.0). Another 225 μl was added to 175 μl 0.5 M NaOH to dissolve possible oligomeric depolymerization products to monomers. Half of the pellet was washed twice for 2.5 hr in 200 μl 2.5% SDS (v/v) in dH2O, the other half was washed twice in 200 μl HCO3^− buffer (pH: 9.1). Both sample supernatants and SDS and HCO3^− buffer supernatants were centrifuged 14,000 rpm for 20 min. and supernatants were added to 10 μl sodium dithionite (200 mg/ml dH2O) to reduce the heme monomers in solution to Fe^2+. All samples were measured in triplicate at 540 nm (Model UV1601 spectrophotometer, Shimradzu Corp, Columbia, Md.). The OD obtained from the blind sample was subtracted from the OD of the hemozoin containing sample.

[1] abbreviates: Table 2, aromatic bisguanylhydrazones, growth in culture, [3H]-hypoxanthine incorporation.
Where [2] appears, read: Table 1, aryl monoguanylhydrazones, growth in culture, [3H]-hypoxanthine incorporation.

Counter-ions that a name gives are not always drawn. Like-named read-outs stand apart in the source and are kept apart here.

A word on the IC50: it is the midpoint of a concentration-inhibition curve.

With `CC(=NNC(=N)N)c1cccc(C(C)=NNC(=N)N)c1.Cl.Cl` [2,2′-(1,3-phenylenediethylidyne)bis(hydrazinecarboximidamide) dihydrochloride], the IC50 with P. falciparum (setting [1]) stood at 830 nM. Moreover, in the assay with synthetic hemozoin (Table 2), the “% depol. hemoz.” value is on record as 0.4%.
As to `Cl.Cl.N=C(N)NN=Cc1cccc(C=NNC(=N)N)c1` [2,2′-(1,3-phenylenedimethylidyne)bis(hydrazinecarboximidamide) dihydrochloride], the IC50 in the assay on P. falciparum (setting [1]) was found to be 1000 nM. In addition, the “% depol. hemoz.” value in the assay with synthetic hemozoin (Table 2) is listed as 0.1%.
Taken in the same sequence, the figures for `CC(=NNC(=N)N)c1cccc(C(C)=NNC(=N)N)n1.Cl.Cl` [2,2′-(2,6-pyridinediyldiethylidyne)bis(hydrazinecarboximidamide) dihydrochloride] were 2000 nM and 0.0%.
For the molecule `CC(=NNC(=N)N)c1cncc(C(C)=NNC(=N)N)c1.Cl.Cl` [2,2′-(3,5-pyridinediyldiethylidyne)bis(hydrazinecarboximidamide) dihydrochloride], the IC50 in the assay on P. falciparum (setting [1]) came to 400 nM. Besides, in the assay on synthetic hemozoin (Table 2), the “% depol. hemoz.” value was determined as 0.3%.
With `CC(CCC1=C(CCC(C)=NNC(=N)N)C(=O)c2ccccc2C1=O)=NNC(=N)N.Cl.Cl` [2,2′-[(1,4-dihydro-1,4-dioxo-2,3-naphthalenediyl)bis(1-methyl-3-propanyl-1-ylidene)]bis(hydrazinecarboximidamide)dihydrochloride], the half-maximal inhibitory concentration (IC50) in the assay with P. falciparum (Table 4, in culture, [3H]-hypoxanthine incorporation) stood at 800 nM. For the same molecule, in the assay on synthetic hemozoin (Table 4), the “% depol. hemoz.” value is recorded as 0.3%.
In the case of `COc1c(C=NNC(=N)N)cc(C)cc1C=NNC(=N)N.Cl.Cl` [2,2′-[(2-methoxy-5-methyl-1,3-phenylene)dimethylidyne]bis(hydrazinecarboximidamide) dihydrochloride], the IC50 with P. falciparum (setting [1]) amounted to 2300 nM. Further, in the assay with synthetic hemozoin (Table 2), the “% depol. hemoz.” value came to 2.0%.
Consider `CC(=NNC(=N)N)c1cc(C(C)=NNC(=N)N)c(O)cc1O.Cl.Cl` [2,2′-[(4,6-dihydroxy-1,3-phenylene)diethylidyne]bis(hydrazinecarboximidamide) dihydrochloride], for which, in the assay on P. falciparum (setting [1]), the IC50 was 7000 nM. Besides, in the assay with synthetic hemozoin (Table 2), the “% depol. hemoz.” value was found to be 2.6%.
For `CC(=NNC(=N)N)c1ccc(O)c(C(C)=NNC(=N)N)c1.Cl.Cl` [2,2′-[(4-hydroxy-1,3-phenylene)diethylidyne]bis(hydrazinecarboximidamide) dihydrochloride], in the assay on P. falciparum (setting [1]), the IC50 stood at 2600 nM. Also, the “% depol. hemoz.” value in the assay on synthetic hemozoin (Table 2) was determined as 0.6%.
Taken in the same sequence, the figures for `Cl.Cl.N=C(N)NN=Cc1ccc(O)c(C=NNC(=N)N)c1` [2,2′-[(4-hydroxy-1,3-phenylene)dimethylidyne]bis(hydrazinecarboximidamide) dihydrochloride] were 5500 nM and 2.2%.
Taken in the same sequence, the figures for `CC(=NNC(=N)N)c1cc(N)cc(C(C)=NNC(=N)N)c1.Cl.Cl` [2,2′-[(5-amino-1,3-phenylene)diethylidyne]bis(hydrazinecarboximidamide) dihydrochloride] were 4000 nM and 0.3%.
On to `CC(=NNC(=N)N)c1cc(O)cc(C(C)=NNC(=N)N)c1.Cl.Cl` [2,2′-[(5-hydroxy-1,3-phenylene)diethylidyne]bis(hydrazinecarboximidamide) dihydrochloride], for which the IC50 with P. falciparum (setting [1]) came to 1400 nM. The “% depol. hemoz.” value in the assay with synthetic hemozoin (Table 2) came to 0.0%.
Consider `Cl.N=C(N)NN=Cc1c(O)ccc2ccccc12` [2-[(2-hydroxy-1-naphthyl)methylidene]hydrazinecarboximidamide monohydrochloride], for which the IC50 with P. falciparum (Plasmodium falciparum) is 1800 nM. Moreover, the “% depol. hemoz.” value with synthetic hemozoin (Table 1) came out at 4.3%.
In the case of `Cc1c(O)c2ccccc2c2c1sc(NCCCN(CCO)CCO)[n+]2C` [2-[[3-[bis(2-hydroxyethyl)amino]propyl]imino]-1,2-dihydro-1,4-dimethylnaphtho[1,2-d]thiazol-5-ol dihydrochloride], the IC50 in the assay on P. falciparum (Plasmodium falciparum) amounted to 200 nM. Further, the “% depol. hemoz.” value with synthetic hemozoin (Table 3) was 2.9%.
For the molecule `CC(=NNC(=N)N)c1ccc(-c2cc(C)n(C)c(=N)n2)cc1` [2-[[4-(3,4-dimethyl-2(3H)-imino-6-pyrimidinyl)phenyl]ethylidene]hydrazinecarboximidamide hydrochloride hydroiodide], the 50% inhibitory concentration (IC50) with P. falciparum (setting [2]) came to 600 nM.
Consider `Cl.N=C(N)NN=Cc1c(N)oc2ccc(Cl)cc2c1=O` [2-amino-3-[(aminoiminomethyl)hydrazono]methyl]-6-chloro-4H-1-benzopyran-4-one hydrochloride], for which the IC50 in the assay with P. falciparum (setting [2]) turned out to be 3250 nM. The “% depol. hemoz.” value in the assay with synthetic hemozoin (Table 1) worked out at 0.6%.
As for `Cc1c(O)c2ccccc2c2sc(NCCCN3CCOCC3)nc12` [4-methyl-2-[[3-(4-morpholino)propyl]amino]naphtho[1,2-d]thiazol-5-ol dihydrochloride], the IC50 in the assay with P. falciparum (Table 3, naphthothiazolium salts, in culture, [3H]-hypoxanthine incorporation) came to 600 nM.
As for `C/C(=N\NC(=N)N)c1cccc(NC(=O)CCCC(=O)Nc2cccc(/C(C)=N/NC(=N)N)c2)c1` [dihydrochloride], the IC50 in the assay with P. falciparum (Plasmodium falciparum) stood at 800 nM. The “% depol. hemoz.” value in the assay on synthetic hemozoin (Table 4) worked out at 0%.
